Test [1] deals with Muscarinic acetylcholine receptor. The test can be described thus: Ability to inhibit [3H]quinuclidinyl benzilate(QNB) binding in rat cerebral cortex, activity expressed as IC50. Type of test: tissue-based.
In test [2] the target is Muscarinic acetylcholine receptor (Rattus norvegicus) (UniProt P08482+P08483+P08485+P08911+P10980). The test can be described thus: Ratio of IC50 values for inhibition of QNB and OXO-M was measured for efficacy of the compound.
Test [3] concerns the target Muscarinic acetylcholine receptor. In words: Ability to inhibit [3H]oxotremorine-M (OXO-M) binding in rat cerebral cortex. Type of test: tissue-based.

The results in this text go back to ChEMBL document CHEMBL1127906, “Design and synthesis of novel muscarinic agonists containing the 1,2,4-triazine ring as an ester bioisostere” (Bioorg Med Chem Lett, 1994).

For orientation: IC50 means the concentration at which inhibition is half-maximal. Low readings indicate greater potency in that assay, high ones weaker potency in that assay.

`CCc1nncc([C@H]2CN3CC[C@H]2C3)n1`: the IC50 in test [1] is 0.41 µM; in test [3], 0.046 µM. Moreover, in test [2], the Ratio is 9.
Consider `CSc1nncc([C@H]2CN3CC[C@H]2C3)n1`, for which the IC50 in test [1] was determined as 1.3 µM; in test [3], 0.29 µM. The Ratio in test [2] worked out at 4.5.
The corresponding values for `Cc1nncc([C@H]2CN3CC[C@H]2C3)n1` are 0.41 µM, 0.0039 µM and 105.
The corresponding values for `Cc1nncc(C23CCCN(CC2)C3)n1` (stereo not given) are 1.8 µM, 0.033 µM and 55.
The corresponding values for `Cc1nncc(C2CN3CCC2CC3)n1` (stereo not given) are 0.225 µM, 0.004 µM and 56.
As for `COc1nncc([C@H]2CN3CC[C@H]2C3)n1`, the IC50 in test [1] came to 2.4 µM; in test [3], 0.14 µM. Besides, the Ratio in test [2] was 17.
The corresponding values for `Cc1noc([C@H]2CN3CC[C@H]2C3)n1` are 1 µM, 0.0028 µM and 360.
In the same order, the values of `Nc1nncc([C@H]2CN3CC[C@H]2C3)n1` are 0.99 µM, 0.0021 µM and 460.
With `c1nncc([C@H]2CN3CC[C@H]2C3)n1`, the IC50 was determined as 1.4 µM in test [1] and 0.0038 µM in test [3]. The Ratio in test [2] is 370.
In the same order, the values of `Cc1nncc(C23CCN(CC2)C3)n1` are 4.1 µM, 0.07 µM and 59.
